Assay results: patent US8354398B2, “Substituted isoxazole compounds” (Bristol-Myers Squibb Company, priority 2009, dated 2013)

Experiments:
[1] = system: experimental autoimmune encephalomyelitis (clinical score); assay: Mouse Experimental Autoimmune Encephalomyelitis Assay (EAE); type: in vivo, C57BL/6 mice; conditions: for Clinical Score on day 21, Mean: C57BL/6 female mice, vehicle mean 2.79
S1P3 = S1P3 (Homo sapiens, UniProt Q99500); assay: Method B: Receptor [35S] GTPγS SPA Binding Assay, membranes from S1P3 transfected CHO cells; type: biochemical; parameters: expressed in transfected cells; host or cells: CHO cells; conditions: S1P3 transfected CHO cell membranes, NC = a satisfactory dose response curve was not obtained
Protocol: Membranes prepared from S1P1 or S1P3 transfected CHO cells (2 μg protein) were incubated in 96-well white plates (CORNING® 3693) with test compounds diluted in DMSO, in 50 μl of reaction mixture containing 7.5 μl WGA-PVT beads (20 mg/ml), and 5 μM GDP, 20 mM HEPES pH 7.4, 100 mM NaCl, 1 mM EDTA, 5 mM MgCl2, 10 μg/ml saponin, 0.1% BSA, and 1 μM leupeptin. The assay was initiated with the addition of 25 μl of 0.2 nM [^35S]-GTPγS (1250 Ci/mmol; NEN) in assay buffer. After 90 min incubation at room temperature, spin the plate at 1000 rpm for 5 min. The bound radionuclides were measured at TOPCOUNT®, expressed as % response relative to S1P (1 μM) activation. Data was analyzed using the four parameter logistic equation in Excel. The four parameters in the equation, Y=A+((B−A)/(1+((EC50/X)^D))), are described as following: A is the Y value (agonist activity) at the bottom plateau; B is the Y value at the top plateau; EC50 is the X value (agonist concentration) when the response is halfway between bottom and top; D is Hill coefficient. Curves were not generated for compounds having Ymax values were below 50%.
Compounds of the present invention and Comparative Compound A were tested in the Receptor [^35S] GTPγS Binding Assays (Method A) and Receptor [35S] In some instances, the value is an average of multiple experiments where N is the number of experiments conducted that provided satisfactory dose response curves. When more than one batch of an example was tested, the value presented is from a batch which allowed a comparison of GTPγS S1P1 and GTPγS S1P3 in which the most number of experiments were performed. Preferably, the same batch was examined in Method A and Method B. Data was not averaged across different batches of an example compound.

S1P1 = S1P1 (Homo sapiens, UniProt P21453); assay: Method B: Receptor [35S] GTPγS SPA Binding Assay, membranes from S1P1 transfected CHO cells; type: biochemical; parameters: expressed in transfected cells; host or cells: S1P1/CHO cells
In short: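 CHO-cell membranes (2 μg protein) with test compound, 5 μM GDP, saponin and WGA-PVT SPA beads, pH 7.4; reaction started with 0.2 nM [35S]-GTPγS, 90 min at room temperature. Bound counts expressed as % of 1 μM S1P response, EC50 from four-parameter logistic fit; no curves where Ymax below 50%.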

S1P1, sequence (P21453 whole entry): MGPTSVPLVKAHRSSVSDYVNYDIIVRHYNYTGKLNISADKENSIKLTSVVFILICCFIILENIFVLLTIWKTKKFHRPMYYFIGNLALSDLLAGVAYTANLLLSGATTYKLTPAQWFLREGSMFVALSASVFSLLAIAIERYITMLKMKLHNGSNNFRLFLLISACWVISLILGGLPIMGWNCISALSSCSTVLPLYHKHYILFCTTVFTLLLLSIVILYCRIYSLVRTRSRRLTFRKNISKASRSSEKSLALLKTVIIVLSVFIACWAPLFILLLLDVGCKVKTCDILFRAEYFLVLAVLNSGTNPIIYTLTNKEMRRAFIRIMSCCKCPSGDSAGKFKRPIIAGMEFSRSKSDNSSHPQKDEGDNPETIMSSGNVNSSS
S1P3, sequence (Q99500 whole entry, species assumed): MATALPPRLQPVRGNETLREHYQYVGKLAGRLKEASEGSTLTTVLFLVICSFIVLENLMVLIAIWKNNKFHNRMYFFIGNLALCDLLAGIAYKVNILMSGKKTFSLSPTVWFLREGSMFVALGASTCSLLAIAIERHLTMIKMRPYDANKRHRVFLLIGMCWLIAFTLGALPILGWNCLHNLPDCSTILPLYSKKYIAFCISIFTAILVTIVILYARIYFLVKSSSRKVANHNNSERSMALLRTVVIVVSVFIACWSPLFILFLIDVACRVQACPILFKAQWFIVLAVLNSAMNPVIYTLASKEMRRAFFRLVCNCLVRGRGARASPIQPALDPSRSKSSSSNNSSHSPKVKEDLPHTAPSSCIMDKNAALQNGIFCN

EC50 (S1P3): 510 nM
EC50 (S1P1; Method B SPA, S1P1 transfected CHO cell membranes, NC = a satisfactory dose response curve was not obtained): 0.048 nM
GTPγS S1P3/S1P1 (Method B) (S1P1; ratio of GTPγS S1P3 EC50 to GTPγS S1P1 EC50, Method B): 11,000
SMILES: O=C(O)C1CN(Cc2ccc(-c3noc(-c4onc(-c5ccccc5)c4C(F)(F)F)n3)cc2)C1 [Example 1, 1-(4-(5-(3-Phenyl-4-(trifluoromethyl)isoxazol-5-yl)-1,2,4-oxadiazol-3-yl)benzyl)azetidine-3-carboxylic acid]
Clinical Score on day 21, Mean ([1]; 0.02 mg/kg once daily from 1 day after immunization): 1.75
Clinical Score on day 21, Mean ([1]; 0.2 mg/kg once daily from 1 day after immunization): 1.13
Clinical Score on day 21, Mean ([1]; 2.0 mg/kg once daily from 1 day after immunization): 1.15
disease progression as determined by the clinical scores ([1]; C57Bl/6 mice, prophylactic oral dosing): inhibits disease progression
